# Results reported in patent US20120202856A1, “SUBSTITUTED BENZIMDAZOLE DERIVATIVES USEFUL AS TRPM8 RECEPTOR MODULATORS” (priority 2011, published 2012).
# Values joined by “and” are separate entries in the source; they are usually repeats but may differ in a detail not shown here. Identical values can stand only once. Counter-ions that a name gives are not always drawn. Like-named read-outs stand apart in the source and are kept apart here.
# Assays:
# [1] = tested on: icilin-induced “wet-dog” shakes (WDS); test: Inhibition of Icilin-Induced “Wet-Dog” Shakes in Rats; type: in vivo, Sprague Dawley rats; conditions: po, read-out: Icilin % Inhibition @1.5 hrs
# Description: The test compound was administered in 10% hydroxypropyl-β-cyclodextrin (HP-13-CD), p.o., 60 min before icilin.
# % Inhibition=[1−(test compound WDS count/vehicle WDS count)]×100.
# canine TRPM8 = target: T1, canine TRPM8 (Canis lupus familiaris, UniProt Q1A7N1); test: In Vitro Canine TRPM8 Functional Assay (intracellular Ca2+ fluorescence, icilin activation, HEK293 cells); type: cell-based; conditions: for inhibition at 0.2 µM / % Inh (%) @0.2 μM, in vitro TRP M8 Activity: individually measured values; for IC50: HEK293 cells expressing canine TRPM8, icilin activation, individually measured values (batches/salt forms), read-out: IC50 (nM), in vitro TRP M8 Activity; for % Inh (%) @0.2 μM, in vitro TRP M8 Activity: 0.2 μM test compound
# T1 construct: expressed in transfected cells
# Procedure, shortened: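 HEK293 cells expressing canine TRPM8 loaded with Calcium 3 dye, then stimulated with icilin; intracellular Ca2+ rise read on FLIPR or FDSS. Peak fluorescence minus basal normalized to percent maximal response; IC50 from sigmoidal nonlinear regression of quadruplicate wells.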
# [2] = HEK293, read-out: % Inh (%) @0.2 μM, in vitro TRP M8 Activity, 0.2 μM test compound
# [3] = rat, p.o., dose 3 mg/kg, 1.5 hrs
# [4] = HEK293, 0.2 μM test compound, read-out: % Inh (%) @0.2 μM, in vitro TRP M8 Activity
# T1 sequence (Q1A7N1 1-1104): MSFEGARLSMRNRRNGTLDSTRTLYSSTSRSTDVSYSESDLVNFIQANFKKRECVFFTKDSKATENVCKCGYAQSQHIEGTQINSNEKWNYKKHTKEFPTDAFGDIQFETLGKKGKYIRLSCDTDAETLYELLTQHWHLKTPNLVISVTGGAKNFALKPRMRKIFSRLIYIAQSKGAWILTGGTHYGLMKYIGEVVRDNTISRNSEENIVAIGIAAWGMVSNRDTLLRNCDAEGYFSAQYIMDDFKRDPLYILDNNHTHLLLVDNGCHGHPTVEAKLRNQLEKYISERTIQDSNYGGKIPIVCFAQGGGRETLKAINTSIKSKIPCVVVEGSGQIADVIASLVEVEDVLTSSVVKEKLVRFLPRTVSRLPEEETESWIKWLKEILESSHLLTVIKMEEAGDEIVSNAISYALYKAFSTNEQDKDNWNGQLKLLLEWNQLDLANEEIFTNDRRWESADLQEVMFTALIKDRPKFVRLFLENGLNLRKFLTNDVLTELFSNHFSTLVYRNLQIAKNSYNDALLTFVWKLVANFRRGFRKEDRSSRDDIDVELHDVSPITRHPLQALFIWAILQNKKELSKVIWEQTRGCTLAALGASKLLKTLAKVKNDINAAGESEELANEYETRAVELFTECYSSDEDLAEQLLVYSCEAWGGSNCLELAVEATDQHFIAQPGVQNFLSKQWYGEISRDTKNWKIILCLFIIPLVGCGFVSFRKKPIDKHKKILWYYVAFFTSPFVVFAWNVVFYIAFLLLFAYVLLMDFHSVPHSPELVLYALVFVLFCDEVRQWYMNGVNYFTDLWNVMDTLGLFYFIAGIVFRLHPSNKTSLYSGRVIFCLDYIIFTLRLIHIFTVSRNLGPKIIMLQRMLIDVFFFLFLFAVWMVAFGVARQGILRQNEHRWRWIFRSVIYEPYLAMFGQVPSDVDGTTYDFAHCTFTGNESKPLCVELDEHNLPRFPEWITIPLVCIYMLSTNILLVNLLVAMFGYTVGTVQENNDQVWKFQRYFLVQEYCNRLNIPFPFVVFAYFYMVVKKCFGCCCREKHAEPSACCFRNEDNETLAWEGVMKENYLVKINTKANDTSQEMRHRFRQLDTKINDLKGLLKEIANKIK
IC50 (canine TRPM8),inhibition at 0.2 µM (canine TRPM8; [4]),Structure (SMILES),also measured
5.6 nM and 3.5 nM and 5.9 nM,99%,"Cl.Cn1nc(C(C)(C)C)c(Cl)c1-c1nc2cc(-c3c(F)cccc3F)cc(Cl)c2[nH]1 [Compound 112, 2-(5-tert-Butyl-4-chloro-2-methyl-2H-pyrazol-3-yl)-7-chloro-5-(2,6-difluoro-phenyl)-1H-benzimidazole hydrochloride]","inhibition in vivo at 3 mg/kg [1, 3]: 21.2%; % Inh (%) @0.2 μM, in vitro TRP M8 Activity (canine TRPM8): 99, 99%"
2.6 nM and 5.8 nM and 5.5 nM,99%,"Cl.Cn1nc(C(C)(C)C)c(Cl)c1-c1nc2cc(-c3ccccc3C(F)(F)F)cc(Cl)c2[nH]1 [Compound 116, 2-(5-tert-Butyl-4-chloro-2-methyl-2H-pyrazol-3-yl)-7-chloro-5-(2-trifluoromethyl-phenyl)-1H-benzimidazole hydrochloride]","inhibition in vivo at 3 mg/kg [1, 3]: 47.7%; % Inh (%) @0.2 μM, in vitro TRP M8 Activity (canine TRPM8; hydrochloride, 0.2 µM): 100%"
12.6 nM and 10.2 nM,99%,"Cc1c(C(C)(C)C)nn(C)c1-c1nc2cc(-c3ccccc3F)cc(Cl)c2[nH]1 [Compound 133, 2-(5-tert-Butyl-2,4-dimethyl-2H-pyrazol-3-yl)-7-chloro-5-(2-fluoro-phenyl)-1H-benzimidazole hydrochloride]","inhibition in vivo at 3 mg/kg [1, 3]: 4.6%"
17.4 nM and 12 nM,,"CC(C)(C)c1cc(-c2nc3cc(-c4ccccc4C(F)(F)F)ccc3[nH]2)on1 [Compound 9, 2-(3-tert-Butylisoxazol-5-yl)-5-(2-trifluoromethylphenyl)-1H-benzimidazole sodium salt]","inhibition in vivo at 10 mg/kg ([1]; rat, p.o., dose 10 mg/kg, 1.5 hrs): 66.4%"
2.1 nM,,"Cc1c(C(C)(C)C)nn(C)c1-c1nc2cc(-c3ccccc3C(F)(F)F)cc(C(F)(F)F)c2[nH]1 [Compound 120, 2-(5-tert-Butyl-2,4-dimethyl-2H-pyrazol-3-yl)-7-trifluoromethyl-5-(2-trifluoromethyl-phenyl)-1H-benzimidazole hydrochloride]","inhibition in vivo at 3 mg/kg [1, 3]: 44.8%"
11.5 nM and 6.3 nM,99%,"Cn1nc(C(C)(C)C)c(Cl)c1-c1nc2cc(-c3ccccc3F)cc(C(F)(F)F)c2[nH]1 [Compound 127, 2-(5-tert-Butyl-4-chloro-2-methyl-2H-pyrazol-3-yl)-5-(2-fluoro-phenyl)-7-trifluoromethyl-1H-benzimidazole hydrochloride]",
,,Cn1nc(C(C)(C)C)c(C#N)c1-c1nc2cc(-c3ccccc3F)cc(C(F)(F)F)c2[n-]1.[Na+] [Compound 147],"% Inh (%) @0.2 μM, in vitro TRP M8 Activity (canine TRPM8; sodium salt, 0.2 µM): 98%"
15.3 nM and 16.7 nM,,"CC(C)(C)c1cc(-c2nc3cc(-c4c(F)cccc4F)ccc3[nH]2)on1 [Compound 67, 2-(3-tert-Butyl-isoxazol-5-yl)-5-(2,6-difluoro-phenyl)-1H-benzimidazole trifluoroacetic acid salt]",
,7%,"Cn1nc(-c2nc3cc(-c4ccccc4C(F)(F)F)ccc3[nH]2)cc1C1CCC1 [Compound 91, 2-(5-Cyclobutyl-1-methyl-1H-pyrazol-3-yl)-5-(2-trifluoromethyl-phenyl)-1H-benzimidazole]",
10.7 nM,,"CCc1ccccc1-c1ccc2[nH]c(-c3cc(C(C)(C)C)nn3C)nc2c1 [Compound 56, 2-(5-tert-Butyl-2-methyl-2H-pyrazol-3-yl)-5-(2-ethyl-phenyl)-1H-benzimidazole trifluoroacetic acid salt]",
24 nM and 35.7 nM,,"CC(C)(C)c1cc(-c2nc3cc(-c4ccccc4F)ccc3[nH]2)on1 [Compound 66, 2-(3-tert-Butyl-isoxazol-5-yl)-5-(2-fluoro-phenyl)-1H-benzimidazole trifluoroacetic acid salt]",
10.9 nM,,"Cc1c(C(C)(C)C)nn(C)c1-c1nc2cc(-c3ccccc3F)ccc2[nH]1 [Compound 93, 2-(5-tert-Butyl-2,4-dimethyl-2H-pyrazol-3-yl)-5-(2-fluoro-phenyl)-1H-benzimidazole hydrochloride]",
2 nM,,"Cc1c(C(C)(C)C)nn(C)c1-c1nc2cc(-c3c(F)cccc3C(F)(F)F)cc(C(F)(F)F)c2[nH]1 [Compound 119, 2-(5-tert-Butyl-2,4-dimethyl-2H-pyrazol-3-yl)-5-(2-fluoro-6-trifluoromethyl-phenyl)-7-trifluoromethyl-1H-benzimidazole hydrochloride]",
20 nM,99%,"Cn1nc(C(C)(C)C)c(C(F)(F)F)c1-c1nc2cc(-c3ccccc3Cl)cc(C(F)(F)F)c2[nH]1 [Compound 186, 2-(5-tert-Butyl-2-methyl-4-trifluoromethyl-2H-pyrazol-3-yl)-5-(2-chloro-phenyl)-7-trifluoromethyl-1H-benzimidazole sodium salt]",
6.9 nM,,"Cc1c(C(C)(C)C)nn(C)c1-c1nc2cc(-c3c(C(F)(F)F)cccc3C(F)(F)F)ccc2[nH]1 [Compound 97, 5-(2,6-Bis-trifluoromethyl-phenyl)-2-(5-tert-butyl-2,4-dimethyl-2H-pyrazol-3-yl)-1H-benzimidazole hydrochloride]",
,58%,"Cc1oc(C(C)(C)C)nc1-c1nc2cc(-c3ccccc3OC(F)(F)F)cc(C(F)(F)F)c2[nH]1 [Compound 156, 2-(2-tert-Butyl-5-methyl-oxazol-4-yl)-5-(2-trifluoromethoxy-phenyl)-7-trifluoromethyl-1H-benzimidazole hydrochloride]",
20 nM,,"Cn1nc(C2CCC2)cc1-c1nc2cc(-c3ccccc3Cl)ccc2[nH]1 [Compound 39, 2-(5-Cyclobutyl-2-methyl-2H-pyrazol-3-yl)-5-(2-chlorophenyl)-1H-benzimidazole sodium salt]",
33.4 nM,83%,"Cc1oc(C(C)(C)C)cc1-c1nc2cc(-c3ccccc3F)ccc2[nH]1 [Compound 174, 2-(5-tert-Butyl-2-methyl-furan-3-yl)-5-(2-fluoro-phenyl)-1H-benzimidazole sodium salt]",
54.4 nM,,"CC(C)(C)c1cc(-c2nc3cc(-c4ccccc4C(F)(F)F)ccc3[nH]2)n(CCO)n1 [Compound 102, 2-{3-tert-Butyl-5-[5-(2-trifluoromethylphenyl)-1H-benzimidazol-2-yl]-pyrazol-1-yl}-ethanol hydrochloride]",
,17%,"Cc1nc(C(C)(C)C)oc1-c1nc2cc(-c3ccccc3)cc(C(F)(F)F)c2[nH]1 [Compound 178, 2-(2-tert-Butyl-4-methyl-oxazol-5-yl)-5-phenyl-7-trifluoromethyl-1H-benzimidazole hydrochloride]",
13.9 nM,,"Cc1c(C(C)(C)C)noc1-c1nc2cc(-c3c(F)cccc3F)ccc2[nH]1 [Compound 109, 2-(3-tert-Butyl-4-methyl-isoxazol-5-yl)-5-(2,6-difluoro-phenyl)-1H-benzimidazole hydrochloride]",
55.9 nM,,"Cn1nc(C2CCC2)cc1-c1nc2cc(-c3ccccc3C(F)(F)F)ccc2[nH]1 [Compound 37, 2-(5-Cyclobutyl-2-methyl-2H-pyrazol-3-yl)-5-(2-trifluoromethyl-phenyl)-1H-benzimidazole sodium salt]",
7.9 nM,,"Cc1c(C(C)(C)C)nn(C)c1-c1nc2cc(-c3c(F)cccc3OC(F)(F)F)cc(C(F)(F)F)c2[nH]1 [Compound 123, 2-(5-tert-Butyl-2,4-dimethyl-2H-pyrazol-3-yl)-5-(2-fluoro-6-trifluoromethoxy-phenyl)-7-trifluoromethyl-1H-benzimidazole hydrochloride]",

Structure (SMILES),IC50 (canine TRPM8),inhibition at 0.2 µM (canine TRPM8; [4]),also measured
"Cn1nc(C(C)(C)C)c(Cl)c1-c1nc2cc(-c3c(F)cccc3C(F)(F)F)cc(C(F)(F)F)c2[nH]1 [Compound 125, 2-(5-tert-Butyl-4-chloro-2-methyl-2H-pyrazol-3-yl)-5-(2-fluoro-6-trifluoromethyl-phenyl)-7-trifluoromethyl-1H-benzimidazole sodium salt]",3.2 nM and 1.7 nM,,"inhibition in vivo at 3 mg/kg ([1]; Rattus norvegicus, 1.5 h): 24.6%; inhibition at 0.2 µM (canine TRPM8; [2]): 100%"
"CC(C)(C)c1cc(-c2nc3cc(-c4ccccc4F)cc(C(F)(F)F)c3[nH]2)on1 [Compound 139, 2-(3-tert-Butyl-isoxazol-5-yl)-5-(2-fluoro-phenyl)-7-trifluoromethyl-1H-benzimidazole sodium salt]",5.6 nM and 12 nM,,inhibition at 0.2 µM (canine TRPM8; [2]): 99%
"Cn1nc(C(C)(C)C)c(C#N)c1-c1nc2cc(-c3ccccc3F)cc(C(F)(F)F)c2[n-]1.[Na+] [Compound 147, 3-tert-Butyl-5-[(5-(2-fluoro-phenyl)-7-trifluoromethyl-1H-benzimidazol-2-yl]-1-methyl-1H-pyrazole-4-carbonitrilesodium salt]",5.9 nM and 4.8 nM and 5.1 nM,100%,
"Cn1nc(C(C)(C)C)c(C#N)c1-c1nc2cc(-c3ccccc3C(F)(F)F)cc(C(F)(F)F)c2[nH]1.[Na] [Compound 149, 3-tert-Butyl-1-methyl-5-[7-trifluoromethyl-5-(2-trifluoromethyl-phenyl)-1H-benzimidazol-2-yl]-1H-pyrazole-4-carbonitrile sodium salt]",3.8 nM and 5.1 nM and 3.2 nM,,"% Inh (%) @0.2 μM, in vitro TRP M8 Activity (canine TRPM8; sodium salt, 0.2 µM): 99%; inhibition at 0.2 µM (canine TRPM8; [2]): 100%"
"Cn1nc(C(C)(C)C)c(C#N)c1-c1nc2cc(-c3ccccc3OC(F)(F)F)cc(C(F)(F)F)c2[nH]1.[Na] [Compound 150, 3-tert-Butyl-1-methyl-5-[5-(2-trifluoromethoxy-phenyl)-7-trifluoromethyl-1H-benzimidazol-2-yl]-1H-pyrazole-4-carbonitrile sodium salt]",5.7 nM and 7.2 nM and 8.3 nM,,"% Inh (%) @0.2 μM, in vitro TRP M8 Activity (canine TRPM8): 100, 100%; inhibition at 0.2 µM (canine TRPM8; [2]): 100%"
